Measured values taken from patent US4578376A, “Pharmaceutical compositions for the treatment of osteopathias” (Istituto Gentili S.p.A., priority 1981, dated 1986).
Entries after “also recorded” stand apart in the source; their conditions may differ. Where a name gives a salt, the structure may show the parent alone. Read-outs that look alike come from different tables or passages of the source.

Assays:
[1] = Toxicity (DL50) in Swiss mice; format: in vivo, both male and female; conditions: mouse, in vivo, Swiss mice male and female
Text: (§1) In vivo, the degree of toxicity of AHEDP has been determined in Swiss mice, both male and female by various routes of administration and by comparison with some of the best known and used diphosphonates.

Toxicity (DL50) in rats = conditions: rat, in vivo, iv; I.v., rats (footnote *)
Swiss mice = assay: Toxicity (DL50) in Swiss mice; format: in vivo, both male and female
Text: as §1

bone reabsorption = assay: Bone reabsorption and in vivo calcification (mineral density in the tibia metaphysis, body weight); design: species or system Wistar rats
Protocol: Groups of five Wistar rats of weight between 180 and 200 grams have been treated for seven days with 0.01, 0.1, 1.0 and 10 mg P/kg of AHEDP or with a physiological solution by the subcutaneous route. The animals have been fed with Altromine 1314 containing 1.1 gram per 100 grams of calcium, 1.2 grams per 100 grams P and 250 IU per 100 grams of Vitamin D3. On the eighth day, the animals were killed and the tibia bones are removed and fixed in 50% ethanol. The tibia bones were then prepared for the histological examination and sections of 70-80μ thickness have been prepared for the microradiological study. This procedure has permitted an estimate of the mineral density in the metaphysis (Schenk, et al. Calc. Tiss. Res. 11, 196-214, 1973).

calvaria cells = assay: cells; format: cell-based, Wistar rats
Protocol: Cellular culture; the cells are first cultured in accordance with the method reported by Fast, et al., (Biochemical Journal, 172, 97-107 (1978). In short, calvaria removed from Wistar rats one day old has been digested with collagenase. The freed cells have been placed on plates in a concentration of […] per ml of medium in Petri dishes of 3.5 cm diameter containing 1.5 ml of medium in dishes of 1.6 cm diameter containing 0.5 ml of medium. The cells have been cultivated in the essential minimum medium containing 10% of fetal calf serum in an atmophere of 5% CO2 at 37° C. up to the seventh or eighth day. The diphosphonates have been added on the first day up to the end of the experiment.
The cells have been counted with a Coulter counter after having been freed from the dishes by digestion with a mixture of collagenase and trypsin. On the seventh day, the mixture has been changed and the cells have been incubated for sixteen hours. The so obtained lactate during this period has been measured according to the method of Fast, et al.

[2] = Clinical study: tolerability; format: in vivo
Text: (§2) Six individuals affected by the bone disease called Paget's condition, that is three men and three women of age between 52 and 68; three individuals affected by metastatic osteolysis, resulting from mammary carcinoma, that is three women between age 42 and 59 years old.
(§3) In eight cases, that is five individuals affected by Paget's disease and three individuals affected by osteolysis, the treatment has been carried out for fifteen days (in one of the cases of the individuals affected by Paget's disease, treatment continued for an additional fifteen days of therapy with a higher dosage); in the ninth case of the individual affected by Paget's disease, the treatment was continued for thirty days.
(§4) The first four cases, that is two individuals affected by Paget's disease and two individuals affected by osteolysis, have received dosage of AHEDP of 5 mg daily by the intravenous route (slow infusion); in the fifth case, the individual affected by Paget's disease, received a dose of 10 mg daily for fifteen days and then 20 mg daily for an additional period of fifteen days. Three other cases, that is two individuals affected by Paget's disease and one individual affected by osteolysis have been administered doses of 20 mg daily for fifteen days. The ninth individual affected by Paget's disease, has been treated with doses of 40 mg daily for 30 days.
(§5) Several parameters have been studied prior to the treatment, during the treatment and at the end of the treatment with respect to the metabolism of phosphorus and calcium and the tolerability of the substance.
Hemochromocytometric examination, proteinemia, glycemia, azotemia, creatininemia, transaminasemia, immunoglobulin.

Solubility = format: physicochemical
[3] = system: demineralizing osteopathias, characterized by a high rate of bone reabsorption; assay: Clinical study: metabolism of phosphorus and calcium, indexes of bone reabsorption; format: in vivo
Text: In view of the favorable pharmacological and toxicological results, the substance, AHEDP, has been tested clinically. The study deals with the effects on the metabolism of phosphorus and calcium of the new diphosphonate according to the present invention used in the treatment of demineralizing osteopathias, characterized by a high rate of bone reabsorption.
as §2, §3, §4, §5
calcemia, phosphatemia, alkaline phosphatasemia, plasmatic PGE2, plasmatic iPTH, calciuria, phosphaturia, hydroxyprolinuria, cyclic nephrogenic AMP.

[4] = no APD clinical test described in the patent; cited from earlier work
[5] = oral route or systemic route; cited from earlier work
[6] = solutions, very low concentrations; cited from earlier work
[7] = Rattus norvegicus, read-out: No. of Cells, % of control ± E.S.

CC(O)(P(=O)(O)O)P(=O)(O)O [EHDP, Ethane-1-hydroxy-1,1-diphosphonic acid disodium salt]
LD50 ([1]; ip, I.p.): 250 mg/kg | LD50 ([1]; po, OS (orally)): 2000 mg/kg | LD50 (Toxicity (DL50) in rats): 35 mg/kg

NCCCCCC(O)(P(=O)(O)O)P(=O)(O)O [AHEDP, 6-amino-1-hydroxyhexane-1,1-diphosphonic acid]
degree of toxicity (in words) (Swiss mice; every route of administration): low degree of toxicity in every route of administration | tolerance in comparison with the analog ADP (Swiss mice; mouse, in vivo): superior tolerance | LD50 ([1]; ip, I.p.): 650 mg/kg | LD50 ([1]; iv, I.v.): 85 mg/kg | LD50 ([1]; po, OS (orally)): > 2000 mg/kg | density of the bone (bone reabsorption; 0.01 mg P/kg, subcutaneous, seven days): no effect on the density of the bone | inhibition of the bone reabsorption (bone reabsorption; 0.1 mg and particularly 1 mg P/kg): a clear inhibition of the bone reabsorption | density of the metaphyses (bone reabsorption; 0.1 mg and particularly 1 mg P/kg, subcutaneous, seven days): an increase in the density of the metaphyses | influence on the body weight (bone reabsorption; 0.01, 0.1, 1.0 mg P/kg, subcutaneous, seven days): No treatment has shown any influence on the body weight | influence on the body weight (bone reabsorption; 10 mg P/kg, subcutaneous, seven days): except in the dose of 10 mg P/kg, which obviously has no significant value | inhibition of the bone reabsorption, in words and in comparison with other well-known diphosphonates (bone reabsorption; rat, in vivo): powerful inhibitor of the bone reabsorption in a degree superior or similar to that of other well-known diphosphonates | effect on the number of cells (in words) (calvaria cells; 250 μM): some reductions, although slightly in the number of cells | effect on the production of the lactate (in words) (calvaria cells; 250 μM): increase in the production of the lactate | activity at 0.25 µM (calvaria cells; Rattus norvegicus, 0.25 μM, read-out: No. of Cells, % of control ± E.S.): 96.6 ± 1.7% | activity at 2.5 µM (calvaria cells; Rattus norvegicus, 2.5 μM, * = significance with respect to the control (APD), read-out: No. of Cells, % of control ± E.S.): 95.7 ± 7.8% | activity at 25 µM (calvaria cells; Rattus norvegicus, 25 μM, * = significance with respect to the control (APD), read-out: No. of Cells, % of control ± E.S.): 104 ± 2.1% | activity at 250 µM (calvaria cells; Rattus norvegicus, 250 μM, * = significance with respect to the control (AHEDP), read-out: No. of Cells, % of control ± E.S.): 88.4 ± 1.5% | cellular toxicity, times less than APD (calvaria cells; compared with the analog APD): about 100 times less | effect on the cellular behavior (calvaria cells; concentrations lower than 250 μM): no negative effect is noted on the cellular behavior | tolerability ([2]; 5-40 mg daily intravenous, 15-30 days): well tolerated; also recorded: tolerated in all cases | variations in the parameters of tolerability ([2]; hemochromocytometric examination, proteinemia, glycemia, azotemia, creatininemia, transaminasemia, immunoglobulin): has not caused significant variations in the parameters of tolerability | increase of the body temperature or variation in the hematic crasia ([2]; human, in vivo): in none of the individuals treated, there has been observed an increase of the body temperature or any variation in the hematic crasia | modifications of the hematic crasia and hepatic and renal functions ([2]; human, in vivo): nor have substantial modifications of the hematic crasia and hepatic and renal functions been noted | side effects ([2]; human, in vivo): no side effects of any significance have been noted; also recorded: no undesirable side effects have been noted | solubility in HCl (Solubility; HCl of average concentration): dissolves in HCl of average concentration | solubility in water (Solubility; water): little soluble in water | solubility with NaOH (Solubility; water with addition of one equivalent of NaOH): dissolves completely by addition of one equivalent of NaOH | plasmatic PGE2 ([3]; 10 mg daily, one individual with Paget's disease): has not caused any change in this parameter | osteolysis and plasmatic alkaline phosphatase (both parameters) ([3]; 40 mg daily, one individual): a reduction of both parameters | alkaline phosphatasemia ([3]; 40 mg daily, one individual (Paget's disease in active phase)): clear and rapid decrease of the alkaline phosphatasemia levels | urinary excretion of inorganic calcium and inorganic phosphates ([3]; 5-10 mg daily): have not modified to a significant degree | alkaline phosphatasemia / indexes of osteoblastic activity ([3]; 5-10-20 mg daily): have not been modified; also recorded: have not caused significant modifications in the plasmatic alkaline phosphatase | osteolysis ([3]; 5-10-20 mg daily): blocking osteolysis | indexes of parathyroid activity (plasmatic immunoreactive PTH, cyclic nephrogenic AMP) ([3]; 5-10-20-40 mg daily): have not caused significant modification changes in the indexes of parathyroid activity | plasmatic PGE2 ([3]; 20-40 mg daily, three individuals with Paget's disease and high prior levels): substantial and rapid decrease in the plasmatic PGE2 in all three individuals | urinary excretion of inorganic calcium and inorganic phosphates ([3]; 20-40 mg daily, obvious particularly in phosphaturia): significant increases of these two parameters | urinary excretion of hydroxyproline ([3]; all the individuals treated): reduced to a significant extent in all the individuals treated; also recorded: prompt and progressive reduction of the urinary excretion of hydroxyproline | calcium and phosphate levels of the plasma ([3]; every dosage used): has not caused variations worth mentioning | hyperphosphatemia ([3]; human, in vivo): phases of hyperphosphatemia have not been observed | calcemia ([3]; very short periods of some treatments): a low degree of calciemic contents have been noted | hydroxyprolinuria, dependence on dosage ([3]; with respect to the values prior to treatment): so much greater with respect to the values prior to treatment, the higher the dosage

NCCC(O)(P(=O)([O-])O)P(=O)([O-])O.[Na+].[Na+] [APD, 3-Amino-1-hydroxypropane-1,1-diphosphonic acid disodium salt]
LD50 ([1]; ip, I.p.): 190 mg/kg | LD50 ([1]; iv, I.v.): 45 mg/kg | LD50 ([1]; po, OS (orally)): 625 mg/kg | activity at 2.5 µM (calvaria cells; [7]): 90.8 ± 2.1% | activity at 25 µM (calvaria cells; [7]): 64.9 ± 4.1% | activity at 250 µM (calvaria cells; [7]): 0% | alterations in body temperature and hematic crasia (comparison analog) [4]: causes substantial alterations in the parameters discussed hereinabove

O=P([O-])([O-])C(Cl)(Cl)P(=O)(O)O.[Na+].[Na+] [Cl2 MDP, Dichloromethylenediphosphonic acid disodium salt]
LD50 ([1]; ip, I.p.): 780 mg/kg | LD50 ([1]; iv, I.v.): 75 mg/kg | LD50 ([1]; po, OS (orally)): > 2000 mg/kg

O=P(O)(O)OP(=O)(O)O [pyrophosphate]
hydrolysis on administration [5]: rapid hydrolysis | precipitation of calcium phosphate [6]: capable of inhibiting the precipitation of calcium phosphate
